# Like-named read-outs stand apart in the source and are kept apart here.
# Legend:
# in vivo = details: fasting Sprague Dawley rat, oral route
# [1] = system: gastric lesions (ulcers) provoked by ethanol; assay: Anti-ulcer activity: protection of gastric lesions provoked by a necrosing agent (ethanol); format: in vivo, male rats of OFA (Iffa Credo) strain; details: for ED50: Rattus norvegicus, po, read-out: AD50 (active dose 50)
# Experimental: (§1) Batches of 10 to 30 male rats of OFA (Iffa Credo) strain, weighing 160-180 g, are placed on a water diet 24 hours before the oral administration of the product studied. Thirty minutes later, a medicamentous ulcer-forming agent or a necrosing agent (for example absolute ethanol) is administered by the oral route at doses which cause in the control animals a maximum gastric ulceration. The stomachs are removed, according to the test, 6 and 1 hr. respectively after the last treatment. The gastric lesions are then assessed macroscopically (dimensioning and measurement of the size of the ulcers).
# (§2) They are expressed in the form of % of inhibition of the ulcers. The active dose 50 is determined graphically.
# [2] = system: painful reactions (phenylbenzoquinone); assay: Analgesic activity: inhibition of painful reactions (twists and stretches) to phenylbenzoquinone; format: in vivo, male mice of CDl (Charles River) strain; details: for DA50 (active dose): VO, linear regression
# Experimental: Batches of 6 to 18 male mice of CDl (Charles River) strain, weighing 18 to 22 g, receive by the intraperitoneal route a water-alcohol 0.02% solution of phenylbenzoquinone 1 hour after treatment by the oral route. The number of painful reactions is counted from the 5th to the 10th minute.
# The active dose and its limits are determined from the linear regression.
# oedema (carragenin) = assay: Anti-inflammatory activity: inhibition of carragenin oedema of the paw; format: in vivo, male rats of CD (Charles River) strain
# Experimental: Batches of 6 to 12 male rats of CD (Charles River) strain, weighing 120-130 g, receive for food and drink a 9 o/oo solution of sodium chloride and 200 o/oo of glucose 18 hours before the test.
# The volume of the paw is measured by plethysmography at regular intervals.
# The active dose 50 and its limits are determined from the linear regression. The significance of the results is given by the Student "t" test (*, ** and *** for p<0.05, p<0.01 and […]).
# [3] = system: gastric lesions (ulcers) provoked by nonsteroid antiinflammatory agent; assay: Anti-ulcer activity: protection of gastric lesions provoked by a medicamentous ulcer forming agent (nonsteroid antiinflammatory agent); format: in vivo, male rats of OFA (Iffa Credo) strain; details: for ED50: Rattus norvegicus, po, read-out: AD50 (active dose 50)
# Experimental: as §1, §2
# total acid secretion = assay: Anti-secretory activity: inhibition of total acid secretion after pyloric ligature; format: in vivo, male rats of OFA (Iffa Credo) strain; details: for ED50: Rattus norvegicus, 4 h, read-out: AD50 (active dose 50); for % of inhibition of the total acid secretion: 4 hours
# Experimental: A pyloric ligature is made under ether anaesthesia on batches of 5 male rats of OFA (Iffa Credo) strain weighing 180-200 g. The product studied is administered by the oral or sub-cutaneous route at the time of the ligature. The animals are sacrificed 4 hours later and the acidity of the gastric fluid collected is titered by 0.1N sodium hydroxide to pH 4 and 7.
# They are expressed in percentage of inhibition of the total acid secretion. The active dose 50 is determined from the linear regression. The significance is given by the Student "t" test (* and ** for p<0.05 and p<0.01).
# [4] = 0.06 mg.kg-1 VO, ethanol lesions
# [5] = 0.25 mg.kg-1 VO, ethanol lesions
# [6] = VO, ethanol lesions, determined graphically
# [7] = VO, NSAID lesions, determined graphically
SMILES,LD50 (in vivo) [mg/kg],"% of protection of lesions provoked [1, 4] [%]","% of protection of lesions provoked [1, 5] [%]","% of protection of lesions provoked ([1]; 1 mg.kg-1 VO, ethanol lesions) [%]","ED50 [1, 6] [mg/kg]",% of inhibition of the painful reactions ([2]; 16 mg.kg-1 VO) [%],% of inhibition of the painful reactions ([2]; 32 mg.kg-1 VO) [%],% of inhibition of the painful reactions ([2]; 64 mg.kg-1 VO) [%],% of inhibition of the painful reactions ([2]; 128 mg.kg-1 VO) [%],% of inhibition of the painful reactions ([2]; 256 mg.kg-1 VO) [%],DA50 (active dose) [2] [mg · kg - 1],% of inhibition of the oedema (oedema (carragenin); 4 mg.kg-1 VO) [%],% of inhibition of the oedema (oedema (carragenin); 16 mg.kg-1 VO) [%],% of inhibition of the oedema (oedema (carragenin); 64 mg.kg-1 VO) [%],% of inhibition of the oedema (oedema (carragenin); 128 mg.kg-1 VO) [%],% of inhibition of the oedema (oedema (carragenin); 256 mg.kg-1 VO) [%],"% of protection of lesions provoked ([3]; 2 mg.kg-1 VO, NSAID lesions) [%]","% of protection of lesions provoked ([3]; 4 mg.kg-1 VO, NSAID lesions) [%]","% of protection of lesions provoked ([3]; 8 mg.kg-1 VO, NSAID lesions) [%]","% of protection of lesions provoked ([3]; 16 mg.kg-1 VO, NSAID lesions) [%]",also measured
"Cc1cc2cccnc2n(-c2cccc(C(F)(F)F)c2)c1=O [Examples 3 & 10, 1-(3-trifluoromethylphenyl)1,2-dihydro 2-oxo 3-methyl 1,8-naphthyridine]",> 256,0,42,79,0.37,30,26,57,58,73,69.4,10,31,47,61,64,15,22,62,87,"% of protection of lesions provoked ([1]; 0.125 mg.kg-1 VO, ethanol lesions): 17%; % of protection of lesions provoked ([1]; 0.5 mg.kg-1 VO, ethanol lesions): 64%; % of inhibition of the painful reactions ([2]; 8 mg.kg-1 VO): 6%; ED50 (oedema (carragenin); Rattus norvegicus, po, VO, linear regression, read-out: AD50 (active dose 50)): 73.3 mg/kg; % of protection of lesions provoked ([3]; 32 mg.kg-1 VO, NSAID lesions): 95%; ED50 [3, 7]: 6.5 mg/kg; ED50 (total acid secretion; administered SC, linear regression): 0.72 mg/kg; ED50 (total acid secretion; po, administered VO, linear regression): 0.7 mg/kg; % of inhibition of the total acid secretion (total acid secretion; administered SC, 0.25 mg.kg-1): 4%; % of inhibition of the total acid secretion (total acid secretion; administered SC, 0.5 mg.kg-1): 38%; % of inhibition of the total acid secretion (total acid secretion; administered SC, 1 mg.kg-1): 65%; % of inhibition of the total acid secretion (total acid secretion; administered SC, 2 mg.kg-1): 90%; % of inhibition of the total acid secretion (total acid secretion; administered VO, 0.125 mg.kg-1): 2%; % of inhibition of the total acid secretion (total acid secretion; administered VO, 0.25 mg.kg-1): 18%; % of inhibition of the total acid secretion (total acid secretion; administered VO, 0.5 mg.kg-1): 59%; % of inhibition of the total acid secretion (total acid secretion; administered VO, 1 mg.kg-1): 56%; % of inhibition of the total acid secretion (total acid secretion; administered VO, 2 mg.kg-1): 75%"
"Cc1cc2cccnc2n(-c2ccccc2)c1=O [Example 11, 1-phenyl 1,2-dihydro 2-oxo 3-methyl 1,8-naphthyridine]",–,86,95,94,–,–,–,–,–,–,–,–,–,–,–,–,100,–,–,–,"% of protection of lesions provoked ([1]; 4 mg.kg-1 VO, ethanol lesions): 98%; ED50 [1]: < 0.06 mg/kg; % of protection of lesions provoked ([3]; 0.25 mg.kg-1 VO, NSAID lesions): 1%; % of protection of lesions provoked ([3]; 0.5 mg.kg-1 VO, NSAID lesions): 34%; % of protection of lesions provoked ([3]; 1 mg.kg-1 VO, NSAID lesions): 75%; ED50 [3]: 0.67 mg/kg; ED50 (total acid secretion; sc): 0.065 mg/kg; % of inhibition of the total acid secretion (total acid secretion; administered SC, 0.03 mg.kg-1): 37%; % of inhibition of the total acid secretion (total acid secretion; administered SC, 0.06 mg.kg-1): 46%; % of inhibition of the total acid secretion (total acid secretion; administered SC, 0.125 mg.kg-1): 63%; % of inhibition of the total acid secretion (total acid secretion; administered SC, 0.25 mg.kg-1): 76%; % of inhibition of the total acid secretion (total acid secretion; administered SC, 0.5 mg.kg-1): 81%"
"O=c1ccc2cccnc2n1-c1cccc(C(F)(F)F)c1 [Example 4, 1-(3-trifluoromethylphenyl)1,2-dihydro 2-oxo 1,8-naphthyridine]",> 256,–,–,6,2.2,6,39,37,79,93,62.0,14,21,80,70,83,–,11,40,68,"% of protection of lesions provoked ([1]; 2 mg.kg-1 VO, ethanol lesions): 52%; % of protection of lesions provoked ([1]; 4 mg.kg-1 VO, ethanol lesions): 87%; % of protection of lesions provoked ([3]; 32 mg.kg-1 VO, NSAID lesions): 81%; ED50 [3, 7]: 12 mg/kg"

# — patent publication US4622328A, “Phenyl-naphthyridines and drugs containing them, particularly anti-ulcer drugs” (priority 1984, dated 1986)
